“Also recorded” adds a separate entry of the source.
Key:
[1] = literature; cited from earlier work
[2] = tested on: rat cortical stem cells; assay: Neuronal differentiation of rat cortical stem cells (β-tubulin III immunofluorescence, cell counting); assay type: cell-based
Source text: Isolation of cortical and striatal stem cells. Timed pregnant Sprague Dawley rats were obtained from Taconic at embryonic age E14–E15 were sacrificed by inhalation of excess carbon dioxide. The abdomen of the rat was cleaned with 70% ethanol and the uterus was removed quickly and aseptically on the bench top. The uterus was placed in ice cold HBSS (GIBCO Cat. #20012-027) in a 10 cm petridish. After rinsing the uterus in PBS, embryos were removed from the uterus, rinsed in HBSS and collected in cold HBSS (buffered with HEPES and sodium bicarbonate) in a 10 cm petridish and placed on ice.
Plating, expansion and passaging of cortical and striatal stem cells. A generous amount of the triturated cell suspension was left in the original 15 ml tube to avoid fibroblast contamination in cultures. About 4–5 ml of the 6 ml of cells suspension was used for plating. Cells were plated at a concentration of 1.3×10^3 cells to 3.0×10^3 per cm^2 in 100 mm dish. This culture is designated P0 (passage 0).
Following plating cells were expanded for about 3–4 days (Passage 1, P1). Cells were treated daily with 10 ng/ml bFGF. The cultures were never permitted to reach more than 70% confluency. Cultures were then passaged as follows: 10 ml of HBSS without Ca^2+ and Mg^2+ was added to each 100 mm dish and the cells incubated at 37° C. for 5–15 minutes, or until sufficient numbers of the stem cells were rounded up. It is not expected that all cells in the culture will round up as there are several cell types in the culture at P0. The pH of the HBSS should be neutral at all times during this incubation. Cells were then removed from the dish by pipetting with a 5 ml pipette, and collected in a 15 or 50 ml conical tube, and centrifuged at 1000 g for 5 minutes. Cells were gently re-suspended in medium, counted, and plated at a density of 1×10^6 cells in 10 cm dishes and expanded for about 2 days in bFGF (Passage 1, P1). At that time the cells were passaged as described and plated onto pre-coated poly-L-ornithine/fibronectin vessels at concentrations indicated below for each experiment. Cells were treated with bFGF for 2 additional days. Before each treatment the bFGF was removed from the cells by washing twice with DMEM/F 12 to induce cell differentiation. For neurite outgrowth experiments, cells were seeded at 5×10^3 cells/well in 24-well plates and treated immediately.
(§1) Drug treatment. For immunofluorescence and Western analysis, cells were treated daily with either 0.5 mM of valproate (Sigma), 10 ng/ml of BDNF (R & D Systems), 20 ng/ml of NT-3 (R & D Systems), 1 nM 9cis retinoic acid (Sigma) or a dilution of NCM for 6 or 7 days. In some experiments valproate was also added with NCM and/or 9cis RA for 7 days. For human stem cell experiments, valproate (0.5 mM) or BDNF (25 ng/ml) was added for 9 days. For neurite outgrowth experiments, cells were treated for 1 day with 0.5 mM valproate or 50 ng/ml of BDNF. Where applicable, medium was changed every 2 days. After about 5–10 days, preferably on day 6 (i.e., after 6 days of drug exposure) the cells were fixed with a 4% solution of para-formaldehyde (PFA) in PBS, prepared as follows:
Immunofluorescent staining and visualization. Cells were plated at 20,000 cells/well in poly-L-ornithine/fibronectin (1 mg/ml) coated 24-well plates. After fixation, the PBS was aspirated from the fixed cells and the cells were treated with blocking solution (10% normal goat serum-NGS-Jackson Labs), 0.3% Triton-Sigma, in PBS) to saturate non-specific sites and permeabilize the cells. […]

[3] = tested on: rat cortical stem cells; assay: Astrocyte differentiation of rat cortical stem cells (GFAP immunofluorescence); assay type: cell-based; settings: 6 days valproate vs control
Experimental: as §1, with “follows: Immunofluorescent staining and visualization. Cells were plated at 20,000 cells/well in poly-L-ornithine/fibronectin (1 mg/ml) coated 24-well plates. […] For immunofluorescence, 3 different black and white pictures were taken by field of interest with a digital camera CoolSnap Fx (Princeton) corresponding to the exposure of Cy2, Cy3 and Hoechst fluorescence. […] The percentage of neurons, astrocytes and GABAergic cells was determined by comparing the number of cells immunopositive for β-tubulin III, GFAP and GABA to the number of bis-benzamide stained nuclei (i.e., total cell number). […]” for “follows:”

[4] = rat cortical stem cells, 6 days, vs control

For `CCCC(CCC)C(=O)O` [valproate, 2-Propylpentanoic acid], the teratogenic activity [1] is given as “established human teratogen”, the “increase of percentage of β-tubulin III expressing neurons over the control” value ([2]; rat cortical neural stem cells, 6 days) is given as ~5 fold and the morphology of neurons ([2]; rat cortical stem cells, 6 days valproate) is given as “growing in clusters and had longer process than cells in control”. For the same molecule, the “effect on neuronal differentiation (percentage of β-tubulin-III expressing cells) in words” value [2, 4] was “increases neuronal differentiation more efficiently than neurotrophins or growth factors”, the “effect on number of neurons per field” value [2, 4] was “increases the number of neurons” and the “effect on total cell number (proliferation), bis-benzimide nuclei” value [2, 4] was “without valproate affecting the total cell number; also recorded: total number of cells is comparable to control; also recorded: does not inhibit neural stem cell proliferation”. The “percentage of β-tubulin III expressing neurons (mean+SD)” value ([2]; rat cortical stem cells, daily treatment 6 days, 0.5 mM valproate, 10 ng/ml BDNF, 20 ng/ml NT-3, untreated control 6.2+1.8%) was 25.8+0.8%, the “neuronal differentiation compared to control, in words” value ([2]; rat cortical stem cells, daily treatment 7 days, 0.5 mM valproate, 0.5× NCM, 1 nM 9-cis RA) was “increased the neuronal differentiation” and the “maximum percentage of neurons” value ([2]; valproate added with 9-cis RA and NCM, 7 days, rat cortical stem cells) was 60%. The “expression of GFAP (astrocyte marker)” value [3] was “dramatically inhibited”.
